Experimental data published in US8143288B2, “Inhibitors of HCV replication” (priority 2005, dated 2012).

System: HCV 1b-377-neo replicon cells
Test: HCV replicon FRET assay
Format: cell-based
Settings: Hepatitis C virus; HCV replicon; read-out: Activity (EC50)
From the text: The HCV replicon cell line was isolated from colonies as described by Lohman, et. al. (Science 1999, 285, 110-113, expressly incorporated by reference in its entirety) and used for all experiments. The HCV replicon has the nucleic acid sequence set forth in EMBL Accession No.: AJ242652, the coding sequence of which is from nt 1801 to 7758.
The coding sequence of the published HCV replicon was synthesized by Operon Technologies, Inc. (Alameda, Calif.), and the fall-length replicon was then assembled in plasmid pGem9zf(+) (Promega, Madison, Wis.) using standard molecular biology techniques. The replicon consists of (i) the HCV 5′ UTR fused to the first 12 amino acids of the capsid protein, (ii) the neomycin phosphotransferase gene (neo), (iii) the IRES from encephalomyocarditis virus (EMCV), and (iv) HCV NS3 to NS5B genes and the HCV 3′ UTR. Plasmid DNAs were linearized with ScaI and RNA transcripts were synthesized in vitro using the T7 MegaScript transcription kit (Ambion, Austin, Tex.) according to manufacturer's directions.
To generate cell lines, 4×10^6 Huh-7 cells (kindly provided by R. Bartenschlager and available from Health Science Research Resources Bank, Japan Health Sciences Foundation) were electroporated (GenePulser System, Bio-Rad) with 10 micrograms(“μg”) of RNA transcript and plated into 100-mm dishes. After 24 hours, selective media containing 1.0 milligrams/milliliter (“mg/mL”) G418 was added and media was changed every 3 to 5 days. […] These cell lines were maintained at 37° C., 5% CO2, 100% relative humidity in DMEM (Cat#11965-084) Gibco-BRL, Rockville, Md., with 10% heat inactivated calf serum (Sigma), 10 mL of 100× penicillin/streptomycin (Cat#15140-122) Gibco-BRL, Rockville, Md., Geneticin (Cat#10131-027) Gibco-BRL, Rockville, Md. at 1 mg/mL. One of the cell lines (deposited as ATCC Accession No. PTA-4583 in the American Type Culture Collection) which had approximately 3,000 copies of HCV replicon RNA/cell was used for development of the assay (HCV 1b-377-neo replicon cells).
To perform the HCV FRET screening assay, 96-well cell culture plates were used. The FRET peptide (Anaspec, Inc., San Jose, Calif.) (Taliani et al., Anal. Biochem. 1996, 240, 60-67, hereby incorporated by reference in its entirety) contains a fluorescence donor, EDANS, near one end of the peptide and an acceptor, DABCYL, near the other end. The fluorescence of the peptide is quenched by […] resonance energy transfer (RET) between the donor and the acceptor, but as the NS3 protease cleaves the peptide the products are released from RET quenching and the fluorescence of the donor becomes apparent.
The assay reagent was made as follows: 5X luciferase cell culture lysis (Cat#E153A, Promega, Madison, Wis.) diluted to 1X with dH2O, NaCl added to […] final, the FRET peptide diluted to 20 micromolar (“μM”) final from a 2 mM stock. HCV 1b-377-neo replicon cells were trypsinized, placed into each well of a 96-well plate and allowed to attach overnight. The next day, the test compounds were added to columns 1 through 10; column 11 was media plus DMSO only, and column 12 contained a titration of interferon or an HCV specific inhibitor as a control (1000 units for A12, B12, 100 units for C12, D12, 10 units for E12, F12 and 1 unit for G12, H12). […] In addition, naïve Huh-7 cells could also be used to replace wells A12 and B12 as a background control.
At subsequent various times (typically 72 hours), 10% final volume Alamar blue (Cat#00-100, Trek Diagnostics, Cleveland, Ohio) was added to each well. The plates were returned to the incubator for 5 hours and then read in the Cytoflour (PE Biosystems) to determine Alamar blue conversion in each well as a measure of cellular toxicity.

SMILES	EC50
O=C(Nc1ccc(/C=C/c2ccc(NC(=O)[C@@H]3CCCN3C(=O)CC3CC3)cc2)cc1)[C@@H]1CCCN1C(=O)CC1CC1 [Example 26]	0.1 to 90 nM
COCCOCC(=O)N1CCC[C@H]1C(=O)Nc1ccc(/C=C/c2ccc(NC(=O)[C@@H]3CCCN3C(=O)COCCOC)cc2)cc1 [Example 27]	100 to 1000 nM
CN(C)CC(=O)N1CCC[C@H]1C(=O)Nc1ccc(/C=C/c2ccc(NC(=O)[C@@H]3CCCN3C(=O)CN(C)C)cc2)cc1 [Example 28]	100 to 1000 nM
CC(Oc1cccc(Cl)c1)C(=O)N1CCC[C@H]1C(=O)Nc1ccc(/C=C/c2ccc(NC(=O)[C@@H]3CCCN3C(=O)C(C)Oc3cccc(Cl)c3)cc2)cc1 (stereo partly drawn) [Example 29]	100 to 1000 nM
O=C(O)CCC(=O)N1CCC[C@H]1C(=O)Nc1ccc(/C=C/c2ccc(NC(=O)[C@@H]3CCCN3C(=O)CCC(=O)O)cc2)cc1 [Example 30]	100 to 1000 nM
O=C(Nc1ccc(/C=C/c2ccc(NC(=O)[C@@H]3CCCN3C(=O)C3CC3)cc2)cc1)[C@@H]1CCCN1C(=O)C1CC1 [Example 31]	0.1 to 90 nM
COc1cccc(C(=O)N2CCC[C@H]2C(=O)Nc2ccc(/C=C/c3ccc(NC(=O)[C@@H]4CCCN4C(=O)c4cccc(OC)c4)cc3)cc2)c1 [Example 32]	0.1 to 90 nM
COc1cccc(CCC(=O)N2CCC[C@H]2C(=O)Nc2ccc(/C=C/c3ccc(NC(=O)[C@@H]4CCCN4C(=O)CCc4cccc(OC)c4)cc3)cc2)c1 [Example 33]	100 to 1000 nM
COc1ccc2[nH]c(C)c(CC(=O)N3CCC[C@H]3C(=O)Nc3ccc(/C=C/c4ccc(NC(=O)[C@@H]5CCCN5C(=O)Cc5c(C)[nH]c6ccc(OC)cc56)cc4)cc3)c2c1 [Example 34]	0.1 to 90 nM
COc1ccc2[nH]cc(CC(=O)N3CCC[C@H]3C(=O)Nc3ccc(/C=C/c4ccc(NC(=O)[C@@H]5CCCN5C(=O)Cc5c[nH]c6ccc(OC)cc56)cc4)cc3)c2c1 [Example 35]	0.1 to 90 nM
Cc1cc(CC(=O)N2CCC[C@H]2C(=O)Nc2ccc(/C=C/c3ccc(NC(=O)[C@@H]4CCCN4C(=O)Cc4cc(C)no4)cc3)cc2)on1 [Example 36]	0.1 to 90 nM
O=C(Nc1ccc(/C=C/c2ccc(NC(=O)[C@@H]3CCCN3C(=O)COc3cccc(Cl)c3)cc2)cc1)[C@@H]1CCCN1C(=O)COc1cccc(Cl)c1 [Example 38]	100 to 1000 nM
CC(C)C(=O)N1CCC[C@H]1C(=O)Nc1ccc(/C=C/c2ccc(NC(=O)[C@@H]3CCCN3C(=O)C(C)C)cc2)cc1 [Example 39]	100 to 1000 nM
CC(C)CC(=O)N1CCC[C@H]1C(=O)Nc1ccc(/C=C/c2ccc(NC(=O)[C@@H]3CCCN3C(=O)CC(C)C)cc2)cc1 [Example 40]	100 to 1000 nM
Cn1cnc(CC(=O)N2CCC[C@H]2C(=O)Nc2ccc(/C=C/c3ccc(NC(=O)[C@@H]4CCCN4C(=O)Cc4cn(C)cn4)cc3)cc2)c1 [Example 41]	0.1 to 90 nM
O=C(Nc1ccc(/C=C/c2ccc(NC(=O)[C@@H]3CCCN3C(=O)Cc3c[nH]cn3)cc2)cc1)[C@@H]1CCCN1C(=O)Cc1c[nH]cn1 [Example 42]	1000 to 10000 nM
O=C(Nc1ccc(/C=C/c2ccc(NC(=O)[C@@H]3CCCN3C(=O)Cc3ccncc3)cc2)cc1)[C@@H]1CCCN1C(=O)Cc1ccncc1 [Example 43]	100 to 1000 nM
O=C(Nc1ccc(/C=C/c2ccc(NC(=O)[C@@H]3CCCN3C(=O)C3CCC3)cc2)cc1)[C@@H]1CCCN1C(=O)C1CCC1 [Example 44]	0.1 to 90 nM
CCC(=O)N1CCC[C@H]1C(=O)Nc1ccc(/C=C/c2ccc(NC(=O)[C@@H]3CCCN3C(=O)CC)cc2)cc1 [Example 46]	100 to 1000 nM
COCC(=O)N1CCC[C@H]1C(=O)Nc1ccc(/C=C/c2ccc(NC(=O)[C@@H]3CCCN3C(=O)COC)cc2)cc1 [Example 47]	100 to 1000 nM
CC(C)(C)CC(=O)N1CCC[C@H]1C(=O)Nc1ccc(/C=C/c2ccc(NC(=O)[C@@H]3CCCN3C(=O)CC(C)(C)C)cc2)cc1 [Example 48]	100 to 1000 nM

SMILES	EC50
CC(=O)N1CCC[C@H]1C(=O)Nc1ccc(/C=C/c2ccc(NC(=O)[C@@H]3CCCN3C(=O)Cc3ccccn3)cc2)cc1 [Example 49]	0.1 to 90 nM
CC(=O)N1CCC[C@H]1C(=O)Nc1ccc(/C=C/c2ccc(NC(=O)[C@@H]3CCCN3C(=O)Cc3cccnc3)cc2)cc1 [Example 50]	0.1 to 90 nM
CC(=O)N1CCC[C@H]1C(=O)Nc1ccc(/C=C/c2ccc(NC(=O)[C@@H]3CCCN3C(=O)Cc3ccncc3)cc2)cc1 [Example 51]	100 to 1000 nM
COC(=O)N1CCC[C@H]1C(=O)Nc1ccc(/C=C/c2ccc(NC(=O)[C@@H]3CCCN3C(=O)OC)cc2)cc1 [Example 52]	100 to 1000 nM
CC(C)(C)C(=O)N1CCC[C@H]1C(=O)Nc1ccc(/C=C/c2ccc(NC(=O)[C@@H]3CCCN3C(=O)C(C)(C)C)cc2)cc1 [Example 53]	0.1 to 90 nM
CC(C)(C)OC(=O)NC1(C(=O)N2CCC[C@H]2C(=O)Nc2ccc(/C=C/c3ccc(NC(=O)[C@@H]4CCCN4C(=O)C4(NC(=O)OC(C)(C)C)CC4)cc3)cc2)CC1 [Example 55]	100 to 1000 nM
CCOC(=O)N1CCC[C@H]1C(=O)Nc1ccc(/C=C/c2ccc(NC(=O)[C@@H]3CCCN3C(=O)C3(C(N)=O)CC3)cc2)cc1 [Example 56]	100 to 1000 nM
CCOC(=O)N1CCC[C@H]1C(=O)Nc1ccc(/C=C/c2ccc(NC(=O)[C@@H]3CCCN3C(=O)OCC)cc2)cc1 [Example 57]	100 to 1000 nM
O=C(Nc1ccc(/C=C/c2ccc(NC(=O)[C@@H]3CCCN3C(=O)c3ccncc3)cc2)cc1)[C@@H]1CCCN1C(=O)c1ccncc1 [Example 58]	0.1 to 90 nM
O=C(Nc1ccc(/C=C/c2ccc(NC(=O)[C@@H]3CCCN3C(=O)c3cccnc3)cc2)cc1)[C@@H]1CCCN1C(=O)c1cccnc1 [Example 59]	100 to 1000 nM
[N-]=[N+]=Nc1ccc(C(=O)N2CCC[C@H]2C(=O)Nc2ccc(/C=C/c3ccc(NC(=O)[C@@H]4CCCN4C(=O)c4ccc(N=[N+]=[N-])cc4)cc3)cc2)cc1 [Example 60]	1000 to 10000 nM
O=C(Nc1ccc(/C=C/c2ccc(NC(=O)[C@@H]3CCCN3C(=O)c3ccccc3)cc2)cc1)[C@@H]1CCCN1C(=O)c1ccccc1 [Example 61]	100 to 1000 nM
NC(=O)C1(C(=O)N2CCC[C@H]2C(=O)Nc2ccc(/C=C/c3ccc(NC(=O)[C@@H]4CCCN4C(=O)C4(C(N)=O)CC4)cc3)cc2)CC1 [Example 62]	100 to 1000 nM
O=C(Nc1ccc(/C=C/c2ccc(NC(=O)[C@@H]3CCCN3C(=O)C3CC3)cc2)cc1)[C@@H]1CCCN1C(=O)Cc1cccnc1 [Example 63]	0.1 to 90 nM
Cn1ccnc1C(=O)N1CCC[C@H]1C(=O)Nc1ccc(/C=C/c2ccc(NC(=O)[C@@H]3CCCN3C(=O)c3nccn3C)cc2)cc1 [Example 64]	0.1 to 90 nM
N#CC1(C(=O)N2CCC[C@H]2C(=O)Nc2ccc(/C=C/c3ccc(NC(=O)[C@@H]4CCCN4C(=O)C4(C#N)CC4)cc3)cc2)CC1 [Example 66]	0.1 to 90 nM
O=C(Nc1ccc(/C=C/c2ccc(NC(=O)[C@@H]3CCCN3C(=O)c3ccco3)cc2)cc1)[C@@H]1CCCN1C(=O)c1ccco1 [Example 67]	100 to 1000 nM
O=C(Nc1ccc(/C=C/c2ccc(NC(=O)[C@@H]3CCCN3C(=O)c3ccsc3)cc2)cc1)[C@@H]1CCCN1C(=O)c1ccsc1 [Example 68]	0.1 to 90 nM
CCC(=O)N1CC=C[C@H]1C(=O)Nc1ccc(/C=C/c2ccc(NC(=O)[C@@H]3C=CCN3C(=O)CC)cc2)cc1 [Example 71]	100 to 1000 nM
CC(C)C(=O)N1CC=C[C@H]1C(=O)Nc1ccc(/C=C/c2ccc(NC(=O)[C@@H]3C=CCN3C(=O)C(C)C)cc2)cc1 [Example 73]	100 to 1000 nM
O=C(Nc1ccc(/C=C/c2ccc(NC(=O)[C@@H]3C=CCN3C(=O)C3CCC3)cc2)cc1)[C@@H]1C=CCN1C(=O)C1CCC1 [Example 74]	100 to 1000 nM
